According to patent publication US20040259865A1, “Pyrimidone compounds and pharmaceutical compositions containing the same” (priority 2001, published 2004):
pIC50, pKi: −log10 of the molar value. Several values for one entry are separate records, joined by “and”; a condition that tells them apart may be missing. Equal values may be shown once.

How the values were obtained:
colon tract = experiment: Inhibitory effect of adenosine receptor antagonist on suppressing action of NECA on Carbachol-stimulated contraction of the colon tract; design: species or system rat; details: for Contraction (%) Mean: Carbachol 0.3 μM + NECA 1 μM = 0%, Carbachol 0.3 μM = 100%; for Inhibition of the suppressing effect of NECA on the contraction (in words): rat colon tract, Carbachol + NECA
Protocol: The abdomen of a rat under anesthesia with ether was opened, and from the rectum to the cecum was excised therefrom and soaked in ice-cooled Tyrode solution (containing 136 mM NaCl, 2.7 mM KCl, 0.4 mM NaH2PO4.2H2O, 5.6 mM glucose, 11.9 mM NaHCO3, 1 mM MgCl2.6H2O, 1.8 mM CaCl2). Surrounding connective tissues were removed, and the intestinal tract was cut at positions apart by 1.5 cm from the rectum and by 3 cm from the cecum, to give a colon tract of about 3 cm in full length. Both the terminals of the colon tract were pinched respectively with Serrefines (trade name) to which a string had been connected, and the colon tract with the side of the cecum facing upward was immediately suspended in a Magnus tube filled with Tyrode solution previously warmed at 37° C., and then equilibrated by bubbling with a gas (O2/CO2=95/5). The string connected to the Serrefines (trade name) at the side of the cecum was suspended, and the change in the length of the colon tract was detected with an amplifier for strain pressure (Nihon Kohden Corporation).
In the experiment, 3 samples were used.

SD IGS rats [1] = experiment: Defecation-promoting action in rat (Test Example 2); assay type: in vivo; details: for The number of fecalpellets/3 rats: 180 minutes after administration; for Defecation-promoting action (in words): Table 4
Protocol: (§1) SD IGS rats (6-weeks-old, from Charles River) were placed in cages (3 animals/cage) and preliminarily allowed food and water ad libitum and raised for 1 week. On the day of the experiment, their weight was measured, a water-absorbing sheet was placed below each cage, and the animals were fasted but allowed water ad libitum throughout the experiment. Three hours after fasting was initiated, the fecal pellets were recovered from each cage and observed for abnormality before the experiment, and then the compound suspended or dissolved in 0.5% (W/V) methyl cellulose (MC) was orally administered into each rat in a dose of 5 ml/kg. On one hand, 0.5% (W/V) MC only was orally given to the control group. After administering the compound, the rats were returned to the cage provided with anew water-absorbing sheet of known weight, and 180 minutes after the administration, the fecal pellets on the water-absorbing sheet were recovered from each cage, and the external appearance was observed, and the number of fecal pellets was counted. The number of fecal pellets is expressed per each cage (Table 4). After the fecal pellets were recovered, the water-absorbing sheet was weighed, and the weight determined by subtracting the initial weight of the water-adsorbing sheet from the weight after the experiment was regarded as the volume of urine and expressed as the volume of urine per 100 g of the body weight (Table 4).

[2] = Urine volume / diuretic action in rat (Test Example 2); assay type: in vivo; details: for Urine Volume (g/100 g body weight): 180 minutes
Protocol: as §1

SD IGS rats [3] = experiment: Contribution of A2b inhibition to defecation-promoting action (Test Example 3); assay type: in vivo, rat; details: 180 minutes
Protocol: as §1
After administering the compounds, the rats were returned to the cage under which a new water-absorbing sheet had been installed, and after 180 minutes, the fecal pellets on the water-absorbing sheet were recovered from each cage, and the outward appearance was observed and the number of fecal pellets was counted. The number of fecal pellets is expressed per cage (Table 5).

[4] = target: T1, human adenosine A1 receptor (Homo sapiens, UniProt P30542); experiment: Ability to bind to adenosine A1 receptor (3H-CCPA); assay type: binding; details: CHOK1 membranes, Cheng-Prusoff
T1 sequence (P30542 1-326): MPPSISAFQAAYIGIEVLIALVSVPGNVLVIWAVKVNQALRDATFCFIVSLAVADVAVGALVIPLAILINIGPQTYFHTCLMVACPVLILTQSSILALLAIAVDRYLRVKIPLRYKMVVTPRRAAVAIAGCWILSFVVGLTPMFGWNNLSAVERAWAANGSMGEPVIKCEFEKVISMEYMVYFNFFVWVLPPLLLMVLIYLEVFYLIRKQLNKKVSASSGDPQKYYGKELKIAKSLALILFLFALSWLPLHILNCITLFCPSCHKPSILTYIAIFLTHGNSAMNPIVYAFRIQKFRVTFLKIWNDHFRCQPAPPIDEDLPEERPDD
Protocol: To 0.45 ml of this membrane sample suspension were added 0.025 ml of 60 nM tritium-labeled chlorocyclopentyl adenosine (3H-CCPA, from NEN Ltd.) and 0.025 ml test compound. This mixture was left at 30° C. for 120 minutes, filtered rapidly under suction through a glass fiber filter (GF/B, from Whatman), and immediately washed twice with 5 ml of 50 mM water-cooled Tris-HCl buffer. Thereafter, the glass fiber filter was transferred to a vial, a scintillator was added thereto, and the radioactivity on the filter was measured by a liquid scintillation counter.
Inhibition (%)=[1−{binding in the presence of the test compound-non-specific binding)/(total binding-non-specific binding)}]×100
In the above formula, the total binding means ^3H—CCPA-bound radioactivity in the absence of the test compound; the non-specific binding means ^3H-CCPA-bound radioactivity in the presence of 100 μM RPIA ([R]-[1-methyl-2-phenylethyl]adenosine); and the binding in the presence of the test compound means ^3H-CCPA-bound radioactivity in the […] of the test compound at predetermined concentrations. The inhibition constant (Ki value) in the table was determined from the formula of Cheng-Prusoff.

[5] = target: T2, human adenosine A2b receptor (Homo sapiens, UniProt P29275); experiment: Inhibition of NECA-stimulated production of cAMP in adenosine A2b receptor-expressing cells; assay type: cell-based
T2 construct: expressed in transfected cells; host or cells: CHOK1 cells
T2 sequence (P29275 1-332): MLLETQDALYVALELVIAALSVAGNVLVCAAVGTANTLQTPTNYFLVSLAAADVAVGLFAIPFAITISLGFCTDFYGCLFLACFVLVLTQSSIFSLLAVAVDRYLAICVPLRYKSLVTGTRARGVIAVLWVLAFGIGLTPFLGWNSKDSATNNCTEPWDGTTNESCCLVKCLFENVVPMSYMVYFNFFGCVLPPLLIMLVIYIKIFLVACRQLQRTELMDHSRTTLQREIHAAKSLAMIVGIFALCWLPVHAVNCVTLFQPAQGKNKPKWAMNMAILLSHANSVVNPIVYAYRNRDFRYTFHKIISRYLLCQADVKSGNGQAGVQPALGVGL
Protocol: CHOK1 cells where a human adenosine A2b receptor had been expressed in excess were plated onto a 24-well plate at a density of 1.5×10^5 cells/well, cultured overnight, and used in the experiment. […] That is, the adhering cells were washed twice with 2 ml/well Krebs-Ringer buffer solution (containing 0.1% BSA; pH 7.4) and pre-incubated for 30 minutes in a volume of 0.5 ml/well. […] After pre-incubation for 15 minutes, the reaction was terminated with 0.1 N HCl in a volume of 300 μl/well. Measurement of intracellular cAMP was carried out using a cAMP enzyme immunoassay kit produced by Amersham.

SD IGS rats [6] = experiment: Evaluation of defecation-promoting action (Tables 8 and 10); assay type: in vivo, rat; details: 3 mg/kg oral; Table 8, n = 4 cages/group
Text: For example, the defecation-promoting actions of 8-phenyltheophylline (“8-PT” in the table below) and 5-[6-amino-8-(3-fluorophenyl)-9H-9-purinyl]-1-methyl-1,2-di hydro-2-pyridinone (Compound II in the table below) disclosed in Example Number 5 described in WO 2001/2400 were as shown below. 8-PT can be easily produced according to the description of Drug Development Research 47: 45-53 (1999), or is easily available as a commercial product (in this test, it was purchased from Sigma).
That is, SD IGS rats (6- to 7-weeks-old, from Charles River) were placed in cages (3 animals/cage) and preliminarily allowed food and water ad libitum and raised for 1 week. On the day of the experiment, their weight was measured, a water-absorbing sheet was placed below each cage, and the animals were fasted but allowed water ad libitum throughout the experiment. Thee hours after fasting was initiated, the fecal pellets were recovered from each cage and observed for abnormality before the experiment, and then the compound suspended in 0.5% (w/v) methyl cellulose (MC) was orally administered in a dose of 5 ml/kg. On one hand, 0.5% (w/v) MC only was orally given to the control group. After administration of the compound, the rats were returned to the cage provided with a new water-absorbing sheet, and 180 minutes after the administration, the fecal pellets on the water-absorbing sheet were recovered from each cage, and the external appearance was observed, and the number of fecal pellets was counted. The number of fecal pellets is expressed per each cage.

## CCn1c(=O)c2c(nc(/C=C/c3ccc(OC)c(OC)c3)n2C)n(CC)c1=O [KW 6002]
Colon tract; antagonist 0.1 μM
  Contraction (%) Mean: 5.2%
Colon tract; antagonist 0.4 μM
  Contraction (%) Mean: 1.1%
Colon tract; antagonist 1.4 μM
  Contraction (%) Mean: −2.9%
Colon tract; antagonist 4.4 μM
  Contraction (%) Mean: −3.9%
Colon tract
  Inhibition of the suppressing effect of NECA on the contraction (in words): did not show any inhibitory effect
SD IGS rats [1]; 1 mg/kg oral
  The number of fecalpellets/3 rats: 6.67 ± 1.63 fecalpellets/3 rats
SD IGS rats [1]; 3 mg/kg oral
  The number of fecalpellets/3 rats: 7.00 ± 0.86 fecalpellets/3 rats
SD IGS rats [1]; rat, oral
  Defecation-promoting action (in words): low defecation-promoting action
[2]; 1 mg/kg oral
  Urine Volume (g/100 g body weight): 0.72 ± 0.07 g/100 g body weight
[2]; 3 mg/kg oral
  Urine Volume (g/100 g body weight): 0.76 ± 0.05 g/100 g body weight
SD IGS rats [3]; KW 3902 0 mg/kg + KW 6002 (1 mg/kg)
  The number of fecalpellets/3 rats: 7.00 ± 1.58 fecalpellets/3 rats
[4]
  pKi: 4.65

## Nc1ncc(-c2ccncc2)c(-c2ccco2)n1 [Compound I, 4-(2-Furyl)-5-(4-pyridyl)-2-pyrimidinyl amine]
Colon tract; antagonist 0.1 μM
  Contraction (%) Mean: 71.5%
Colon tract; antagonist 0.4 μM
  Contraction (%) Mean: 111.0%
Colon tract; antagonist 1.4 μM
  Contraction (%) Mean: 122.0%
Colon tract; antagonist 4.4 μM
  Contraction (%) Mean: 85.9%
Colon tract
  Inhibition of the suppressing effect of NECA on the contraction (in words): inhibited the suppressing effect of NECA on the contraction
SD IGS rats [1]; 3 mg/kg oral
  The number of fecalpellets/3 rats: 16.33 ± 1.82 fecalpellets/3 rats
SD IGS rats [1]; 10 mg/kg oral
  The number of fecalpellets/3 rats: 30.00 ± 2.79 fecalpellets/3 rats
SD IGS rats [1]; rat, oral
  Diarrhea: did not cause diarrhea
  Defecation-promoting action (in words): evidently higher defecation-promoting action than the A1-selective antagonist KW3902 or the A2a-selective antagonist KW6002
[2]; 3 mg/kg oral
  Urine Volume (g/100 g body weight): 0.79 ± 0.09 g/100 g body weight
[2]; 10 mg/kg oral
  Urine Volume (g/100 g body weight): 1.23 ± 0.13 g/100 g body weight
[2]; rat, oral
  Diuretic action (comparison in words): weaker diuretic action than the A1-selective antagonist KW3902
SD IGS rats [3]; 3 mg/kg, without KW 6002
  The number of fecalpellets/3 rats: 34.00 ± 1.00 fecalpellets/3 rats
[4]
  pKi: 6.18
[5]
  pIC50: 8.08
SD IGS rats [6]
  The number of fecalpellets/3 rats: 19.75 ± 2.50 fecalpellets/3 rats and 20.75 ± 3.15 fecalpellets/3 rats
